{
  "source": "patent US8513230B2",
  "about": "“Nuclear transport modulators and uses thereof” (Karyopharm Therapeutics, Inc., priority 2010, dated 2013)",
  "key": {"[1]": {"test_system": "panel of ~570 solid and hematologic cancer cell lines", "experiment": "Cytotoxicity assay (CellTiter 96 AQueous One Solution, MTS) in cancer cell line panel", "type": "cell-based", "conditions": "72 hours exposure, IC50 determined by MTS assay", "protocol": "Cytotoxicity Assay (CellTiter 96® AQueous One Solution Cell Proliferation Assay) Cells were seeded into 96-well plates and compounds at the indicated concentrations were added to the cells after overnight incubation. Seventy two hrs later the proliferation assay was done in the following way: Twenty microliters of CellTiter 96® AQueous One Solution Reagent was added into each well. After 1 hour at 37° C. in a humidified, 5% CO2 atmosphere, the absorbance at 490 nm was recorded using an ELISA plate reader. Test compound was assayed in numerous cancer cell lines using the above assay protocol. Results are depicted in FIG. 3."}, "MM1.S xenografts": {"test_system": "MM1.S xenografts", "experiment": "MM1.S xenograft growth", "type": "in vivo", "protocol": "FIG. 4 presents activity data for Example 1 (KPT-0127) administered at 150 mg/kg QD×5. […] (A) MM1.S cells were grown as xenografts to 130 mm^3 (small) or (B) 1350 mm^3 (large) sizes and were treated with KPT-0127 SC or dexamethasone IP daily×5 and growth was assessed. Treatment of large xenografts is ongoing (data shown after 5 doses of KPT-0127)."}, "[2]": {"test_system": "Human myeloma cell lines (H929)", "experiment": "Combination study with doxorubicin, apoptosis by anti-caspase-3 assay", "type": "cell-based", "conditions": "H929 cells, compound 16 hrs then doxorubicin 2 umol/L for 4 h", "protocol": "Combinations studies with doxorubicin. Human myeloma cell lines (H929) grown at 2×10^6 cells/mL (high density) were incubated with and without Example 1 for 16 h followed by doxorubicin (2 umol/L; Sigma) for 4 h and assayed for apoptosis by anti-caspase-3 assay (BD Pharmingen)."}, "[3]": {"test_system": "MM.1S, MM.1R, Jurkat and HS-Sultan cells", "experiment": "Isobologram analysis of the interaction with Bortezomib", "type": "cell-based", "protocol": "The MTT cell proliferation assay was used to study the cytotoxic properties of the compounds. The assay was performed according to the method described by Roche Molecular Biochemicals with minor modifications. The assay is based on the cleavage of the tetrazolium salt, MTT, in the presence of an electron-coupling reagent. The water-insoluble formazan salt produced must be solubilized in an additional step. Cells, grown in a 96-well tissue culture plate, are incubated with the MTT solution for approximately 4 hours. After this incubation period, a water-insoluble formazan dye is formed. After solubilization, the formazan dye is quantitated using a scanning multi-well spectrophotometer (ELISA reader). […] The cells were seeded at 1.5×10^4 cells in each well of 96-well plate in 200 μL of fresh culture medium and were allowed to attach for overnight. The stock solutions of the compounds were diluted in cell culture medium to obtain eight concentrations of each drug, ranging from 1 nM to 20 μM. After 72 h of treatment the medium was aspirated and the cells were washed once with sterile 1×PBS. […]\nTumor cells were assayed for viability in the absence or presence of drug/control treatments, and drug combination dose response studies were analyzed graphically by correlating the fraction of surviving cells with drug concentrations for each drug.r"}, "normal cells": {"test_system": "normal cells", "experiment": "Cytotoxicity assay (MTS), normal cells", "type": "cell-based", "conditions": "72 hours exposure"}, "HCT-116 xenografts": {"test_system": "HCT-116 xenografts", "experiment": "HCT-116 xenograft growth and tolerability", "type": "in vivo", "protocol": "FIG. 5 presents activity data for Example 1 (KPT-127) administered at 150 mg/kg QD×7. […] HCT-116 xenografts were grown to ˜150 mm^3 and low dose KPT-0127 administered. On day 9, when the tumors were ˜350 mm^3, KPT-127 dose was escalated to 150 mg/kg sc daily. Irinotecan was used as a control."}, "Crm1": {"target": "T1, Crm1 (Homo sapiens, UniProt O14980)", "T1 construct": "endogenous in cells; host or cells: U2OS-RevGFP cells", "T1 sequence (O14980 whole entry)": "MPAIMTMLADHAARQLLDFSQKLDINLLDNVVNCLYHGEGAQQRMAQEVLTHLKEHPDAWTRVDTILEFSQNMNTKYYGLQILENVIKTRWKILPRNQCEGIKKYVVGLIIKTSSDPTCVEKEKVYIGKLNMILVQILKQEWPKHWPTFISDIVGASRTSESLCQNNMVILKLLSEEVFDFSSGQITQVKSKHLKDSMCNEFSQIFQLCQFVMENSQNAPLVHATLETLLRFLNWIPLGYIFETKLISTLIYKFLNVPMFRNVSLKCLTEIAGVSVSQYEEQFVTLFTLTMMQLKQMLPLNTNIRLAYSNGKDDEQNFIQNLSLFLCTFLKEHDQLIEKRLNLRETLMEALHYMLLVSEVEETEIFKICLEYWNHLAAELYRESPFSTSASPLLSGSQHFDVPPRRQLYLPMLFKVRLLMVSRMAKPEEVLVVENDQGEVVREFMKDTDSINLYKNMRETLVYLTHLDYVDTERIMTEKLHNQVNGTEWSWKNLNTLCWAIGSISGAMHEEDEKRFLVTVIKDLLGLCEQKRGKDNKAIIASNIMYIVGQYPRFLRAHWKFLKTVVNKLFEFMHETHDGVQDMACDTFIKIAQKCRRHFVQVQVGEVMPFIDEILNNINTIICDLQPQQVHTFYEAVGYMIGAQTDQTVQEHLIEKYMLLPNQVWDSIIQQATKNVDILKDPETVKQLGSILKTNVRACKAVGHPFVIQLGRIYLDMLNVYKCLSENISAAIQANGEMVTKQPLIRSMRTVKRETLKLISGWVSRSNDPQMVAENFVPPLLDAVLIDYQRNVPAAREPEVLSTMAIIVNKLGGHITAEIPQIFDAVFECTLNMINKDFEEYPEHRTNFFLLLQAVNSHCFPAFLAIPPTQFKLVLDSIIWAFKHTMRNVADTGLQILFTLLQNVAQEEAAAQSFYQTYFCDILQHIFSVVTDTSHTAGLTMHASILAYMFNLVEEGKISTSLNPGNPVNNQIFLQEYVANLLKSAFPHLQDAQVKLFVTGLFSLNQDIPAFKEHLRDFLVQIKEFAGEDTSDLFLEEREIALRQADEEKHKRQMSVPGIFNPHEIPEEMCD", "experiment": "Rev-GFP nuclear export inhibition assay (U2OS-RevGFP cells)", "type": "cell-based", "conditions": "~1 hr incubation with compound, read-out: Rev Export (%)/[IC50] OR Cytotoxicity[EC50]", "protocol": "The evaluation of the affinity of compounds for the Crm1 protein was determined in the RevGFP assay.\nExperimental protocol: Rev is a protein from human immunodeficiency virus type 1 (HIV-1) and contains a nuclear export signal (NES) in its C-terminal domain and a nuclear localization signal (NLS) in its N-terminal domain. Nuclear export of Rev protein is dependent on the classical NES/Crm1 pathway (Neville et al, 1997). Nuclear accumulation of Rev can be observed in cells treated with specific inhibitors of Crm1, such as LMB (Kau et al, 2003). In this assay, U2OS-RevGFP cells are seeded onto clear-bottom, black, 384-well plates the day before the experiment. Compounds are serially diluted 1:2 starting from 40 μM in a separate 384-well plate in DMEM, and then transferred onto cells. Cells are incubated with compound for ˜1 hr before fixation with 3.7% formaldehyde and nuclei staining with Hoechst 33258. The amount of GFP in cell nuclei will be measured and compound IC50s determined (Kau et al, 2003)."}},
  "data": [
    {"smiles": "CC(C)OC(=O)/C=C\\n1cnc(-c2cccc(Cl)c2)n1", "note": "[Example 1, (Z)-3-[3-(3-Chloro-phenyl)-[1,2,4]-triazol-1-yl]-acrylic acid isopropyl ester]", "values": [
      {"measurement": "cytotoxicity in hematologic and solid tumor cell lines", "setting": "[1]", "value": "potent and selective cytotoxicity"},
      {"measurement": "growth of small MM1.S xenografts", "setting": "MM1.S xenografts; 150 mg/kg QD×5 SC, xenografts grown to 130 mm^3", "value": "inhibits growth"},
      {"measurement": "growth of large MM1.S xenografts", "setting": "MM1.S xenografts; 150 mg/kg SC, xenografts 1300 mm^3, data after 5 doses, treatment ongoing", "value": "inhibits growth"},
      {"measurement": "sensitization to Topo II inhibitor Doxorubicin (apoptosis)", "setting": "[2]", "value": "sensitizes non-Cyclin resistant Myeloma H929 cells to Topo II inhibitor Doxorubicin"},
      {"measurement": "interaction with Bortezomib (isobologram analysis)", "setting": "[3]", "value": "synergistic interactions with Bortezomib"},
      {"measurement": "effect on normal cells", "setting": "normal cells", "value": "minimal effect on normal cells"},
      {"measurement": "growth of moderate HCT-116 xenografts", "setting": "HCT-116 xenografts; 150 mg/kg QD×7, low dose from ~150 mm^3, escalated on day 9 (~350 mm^3) to 150 mg/kg sc daily", "value": "inhibits moderate HCT-116 xenografts"},
      {"measurement": "tolerability", "setting": "HCT-116 xenografts; 150 mg/kg sc daily", "value": "well tolerated"},
      {"measurement": "clinical chemistries and CBCs", "setting": "HCT-116 xenografts; HCT-116 xenograft study", "value": "not significantly affected"}
    ]},
    {"smiles": "CCOC(=O)/C=C\\n1cnc(-c2cc(F)cc(Cl)c2)n1", "note": "[Example 82, 3-[3-(3-Chloro-5-fluoro-phenyl)-[1,2,4]triazol-1-yl]-acrylic acid ethyl ester]", "values": [
      {"measurement": "IC50", "setting": "Crm1", "value": "1 to 10", "unit": "µM"}
    ]},
    {"smiles": "CC(C)N(C)C(=O)/C=C\\c1n[nH]c(-c2cccc(Cl)c2)n1", "note": "[Example 95, 3-[5-(3-Chloro-phenyl)-1H-[1,2,4]triazol-3-yl]-N-isopropyl-N-methyl-acrylamide]", "values": [
      {"measurement": "IC50", "setting": "Crm1", "value": "> 10", "unit": "µM"}
    ]},
    {"smiles": "CC(C)OC(=O)/C=C\\n1cnc(-c2cc(C(F)(F)F)cc(S(C)(=O)=O)c2)n1", "note": "[Example 67, (Z)-isopropyl 3-(3-(3-(methylsulfonyl)-5-(trifluoromethyl)phenyl)-1H-1,2,4-triazol-1-yl)acrylate]", "values": [
      {"measurement": "IC50", "setting": "Crm1", "value": "< 1", "unit": "µM"}
    ]}
  ]
}
